This is an account of results in patent US20060246026A1, “Barrier formulation comprising a silicone based emulsion” (priority 2003, published 2006).

This test has as its system bacterial counts on the fingertips. Nature of the test: prEN 12791 in vivo anti-microbial activity on fingertips of volunteers. On the set-up: species or system human. Particulars: after 3 minutes (immediate); 20 volunteers; 60% propanol compared with the formulation (p<0.0001). The protocol:
The anti-microbial efficacy of the formulation of Example 5 was assessed in the clinical setting. The acceptability of the formulation of Example 5 by health care workers (HCW) was investigated. In vitro and in vivo assessment of the formulation was undertaken in accordance with European standards currently used for assessing hygienic and surgical rubs and washes (prEN 12054 and prEN 12791).
prEN 12054 and prEN 12791 (European Standards for Assessing Hygienic and Surgical Hand Rubs and Washes) • In vitro antibacterial efficacy of the formulation was assessed for anti-microbial activity against Staphylococcus aureus ATCC 6538, Enterococcus hirae ATCC 10541, Pseudomonas aeruginosa ATCC 15442 and Escherichia coli NCTC 10536 in accordance with prEN 12054. In vivo anti-microbial activity of the formulation was compared with 60% (v/v) […] (gold standard) in accordance with […]. Twenty laboratory volunteers participated in the assessment of the formulation in accordance to prEN 12791.

Take `CCCO` [60% propanol, propanol]: the “Mean reduction factor in the bacterial counts on the fingertips, immediate” value is recorded as “significantly higher mean reduction factor”.
